Experimental data from ChEMBL document CHEMBL1126546, “Vitamin D analogues: new regulators of cancer cell growth and differentiation” (Bioorg Med Chem Lett, 1993).

Experiments:
U-937 [1] = assay: Compound was tested in vitro to inhibit proliferation of U 937 human histiolytic lymphoma cells; format: functional, cell-based
U-937 [2] = assay: Concentration required for the compound to induce U 937 cells along the monocyte-macrophage pathway; format: functional, cell-based; details: Homo sapiens
Rattus norvegicus = assay: Compound was tested for in vivo antitumor effect on rats with mammary tumors induced by nitrosomethylurea at a dose of 2.5 ug/kg/day; format: functional

IC50 (U-937 [1]) [pM]	Structure (SMILES)	Concentration (U-937 [2]) [nM]	inhibition in vivo at 0.0025 mg/kg/day (Rattus norvegicus) [%]
250	C=C1/C(=C\C=C2/CCC[C@]3(C)[C@@H]([C@H](C)/C=C/C=C/C(O)(CC)CC)CC[C@@H]23)C[C@@H](O)C[C@@H]1O [SEOCALCITOL]	0.03	80
	C=C1/C(=C\C=C2/CCC[C@]3(C)[C@@H]([C@H](C)CCCC(C)(C)O)CC[C@@H]23)C[C@@H](O)C[C@@H]1O	2	
